Measured values as given in US20070066580A1, “Novel aldosterone antagonists and uses thereof” (Recordati Ireland Limited, priority 2005, published 2007).

Biological target: T1, ligand binding domain of the human mineralocorticoid receptor (hMR LBD) (Homo sapiens, UniProt P08235)
T1 construct: made in house; host or cells: Sf9 insect cells (baculovirus, pFastBac)
T1 sequence (P08235 729-984): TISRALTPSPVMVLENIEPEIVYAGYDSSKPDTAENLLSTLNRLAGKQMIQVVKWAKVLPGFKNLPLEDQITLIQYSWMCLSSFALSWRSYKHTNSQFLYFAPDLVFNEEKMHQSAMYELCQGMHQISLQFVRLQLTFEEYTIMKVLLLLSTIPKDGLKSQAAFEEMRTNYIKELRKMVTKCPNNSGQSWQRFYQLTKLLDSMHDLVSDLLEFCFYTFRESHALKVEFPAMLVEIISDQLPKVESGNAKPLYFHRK
Experiment: Mineralocorticoid receptor (MR) in vitro competitive binding assay, [3H]aldosterone displacement
Details: IR^TOTAL = sum of IR^AR/MR, IR^ER/MR, IR^GR/MR, IR^PR/MR
Method: Mineralocorticoid receptor (MR) binding assay: Spodoptera furgiperda (Sf9) insect cells (ATCC accession number CRL-1711) were maintained in culture in EX-CELL™ 420 serum free medium (JRH Biosciences, Inc.) at 27° C.
A recombinant baculovirus containing nucleotide sequences encoding the ligand binding domain of the human mineralocorticoid receptor (hMR) cloned into the pFastBac™ vector was generated using the Bac-to-Bac® Baculovirus Expression System Kit (Invitrogen) following the manufacturer's instructions. This recombinant baculovirus contains nucleotides 2401 through 3168 (SEQ ID NO: 13) of hMR, providing for expression of the ligand binding domain (LBD), amino acid residues 729-984 (SEQ ID NO: 14), of hMR (hMR LBD). Cultured Sf9 insect cells were transfected with this recombinant baculovirus following the manufacturer's instructions.
For the binding assay, a crude lysate of the hMR LBD-expressing insect cells was prepared. The crude lysate was diluted 12.5-fold with binding buffer (20 mM Tris-HCl pH 7.4, 1 mM EDTA, 1 mM dithiothreitol, 20 mM sodium tungstate, 50 mM KCl and 10% glycerol).
For the negative control sample, the diluted lysate was incubated with a 10 nM final concentration of the radioligand [1,2,6,7-^3H] aldosterone (Amersham Biosciences, catalogue # 434) for 3.5 h at 4° C. For test compounds and the positive control sample, the diluted lysate was incubated with various concentrations of test compound or with a 20 μM final concentration of spironolactone (Sigma, S-3378) as a reference compound for 45 min on ice, and was then incubated with a 10 nM final concentration of [1,2,6,7-^3H] aldosterone for 3.5 h at 4° C.
Using a CellHarvester (PerkinElmer, formerly Packard Biosciences), receptor/ligand complexes were retained on 96-well GF/B filters (PerkinElmer, formerly Packard Biosciences) while free radioligand passed through the filters. Scintillation counting of GF/B filter plates was performed using a TopCount NXT (PerkinElmer, formerly Packard Biosciences) to quantitate the amount of [1,2,6,7-^3H] aldosterone bound to the hMR LBD.
The IC50 of a test compound was determined from the concentration of test compound giving half-maximal displacement as obtained by nonlinear least-squares curve fitting to a one-site binding sigmoidal model using Prism 3.0 (Graph Pad Software, Inc., San Diego, US). The calculated IC50 values represent the average values calculated from the results of 1-3 experiments carried out in duplicate.
IC50 and inhibitory ratio calculations: To provide a measure of the potency of each test compound as an antagonist of MR, the IC50 of each test compound (IC50^Test) for ligand binding to MR and the IC50 of the known MR antagonists eplerenone (IC50^Ep) and spironolactone (IC50^Sp) for ligand binding to MR were used to calculate an IC50 ratio (RIC50) according to the following equations: RIC50^Ep/Test=IC50^Ep/IC50^Test and RIC50^Sp/Test=IC50^Sp/IC50^Test.
These individual inhibitory ratios were used to calculate a total inhibitory ratio (IR^TOTAL) according to the following equation: IR^TOTAL=IR^AR/MR+IR^ER/MR+IR^GR/MR+IR^PR/MR. B. Results and Discussion

CCS[C@@H]1CC2=CC(=O)CC[C@]2(C)C2=CC[C@@]3(C)C(CC[C@@]34CCC(=O)O4)C21 (some centres unmarked) [Example 13]
IR^TOTAL compared with the IR^TOTAL for eplerenone: at least an order of magnitude greater than the IR^TOTAL for eplerenone | IR^TOTAL compared with the IR^TOTAL for spironolactone: at least an order of magnitude greater than the IR^TOTAL for spironolactone
